Values of other authors as cited in US20160128970A1, “COMPOSITION AND METHOD FOR TREATING NOSEBLEEDS” (BINYARCO, LLC, priority 2005, published 2016).

Substance: bismuth subgallate
- solubility in water: insoluble in water
